The values that follow come from patent US10166237B2, “Compounds and methods for inducing chondrogenesis” (The Scripps Research Institute, priority 2011, dated 2019).

For one data set, the system named is hMSC. Kind of data set: type II collagen and aggrecan immunohistochemistry in hMSC pellet culture. The format is cell-based, human. The settings on record: 21 days. The source says: In the screen, hMSCs were used as a surrogate to future targeting of the resident MSCs with the cartilage joint. It was in that setting upon which we identified PRO1. In a joint injury, the primary cell type a therapeutic would have contact with is the chondrocyte. Although cartilage or chondrocyte-targeted screening has not lead to the development of a successful drug modifying osteoarthritis drug (DMOAD) to date, it is believed that a stem cell-based therapeutic would protect and even repair the existing chondrocytes. Therefore, protection of the articular chondrocytes and cartilage from a mature bovine knee was assessed. PRO1 and its analogues were incubated with primary bovine chondrocytes or cartilage explants cultures grown in the presence of TNFα and oncostatin M to mimic the cytokine-induced damage that can occur during OA. In the presence of the cytokine cocktail, in vitro cultured primary chondrocytes released 4-5 fold more nitric oxide (NO) than the untreated chondrocytes (50 μM vs 10 μM) as measured by the Greiss reaction. […]
Primary hMSCs were plated (10,000/well) in 384-well plates and cultured for 18 days. […] 20 μl of the supernatant was mixed with 20 μl of the Greiss reagent and quantitated at 540 nm as described by the Promega kit instructions. […]

The test system of a further data set is synovial fibroblasts. The data set is described as follows: toxicity in synovial fibroblasts. The following applies: 100 μM. The class given is cell-based.
A further data set concerns female 129SVE mice. The data set is described as follows: surgically induced cartilage injury (ACL, MCL, MMTL transection). The class given is in vivo. The following applies: IA injection days 7, 14 and 21. Here is the method: Surgical transection of the ACL, MCL, and MMTL was performed to induce cartilage injury in female 129SVE mice. Mice were dosed by IA injection on days 7, 14 and 21. The medial tibial plateaus from representative mice were assessed on day 28 (FIG. 4A). Histomorphometric analyses and grading by two blinded observers using a modified OARSI scoring system determined the joint severity scores of the […] tibial plateau on day 28 after surgical induction (FIG. 4B). At 28 days, peripheral blood was collected by retro-orbital bleeding and the serum was used to determine the cleaved type II collagen fragments (CTX-II levels) by ELISA (Serum Pre-Clinical Cartilaps, Immunodiagnostic Systems, Fountain Hills, Ariz.). n=15/treatment group (FIG. 4C).

Another data set relates to C57BL/10 mice. Kind of data set: collagenase VII-induced knee joint damage. The format is in vivo. The settings on record: 10 μM intra-articular on days 7 and 21. On the procedure:
IA injections of C57BL/10 mice with collagenase VII (12 U/knee) induced joint damage through digestion of the ligament of the knee. The mice were dosed intra-articularly on days 7 and 21 with 10 μM PRO1 or PBS. On day 56 the mice were euthanized for histopathological analyses. Parafin blocks were sectioned at 5 um and stained with Safranin O, and representative data was collected for the PBS- and PRO1-treated mice (FIG. 3A). The total medial tibial plateau joint score was determined by two blinded observers and averaged to represent the data shown here using the OARSI scoring system (FIG. 3B). Peripheral blood was collected from each mouse by retro-orbital bleeding on day 1, day 13 and day 56. The circulating COMP was determined by the Animal COMP ELISA kit according to the manufacturer's instructions (MDBioproducts, St Paul, Minn.). Pooled data, 10 mice/group (FIG. 3C).

For data set [1] the following is noted: in vivo, 0.05 mg/kg.
The target of a further data set is T1, FLNA (Homo sapiens, UniProt P21333).
T1 construct: endogenous in cells; host or cells: hMSCs (primary human mesenchymal stem cells)
T1 sequence (P21333 whole entry): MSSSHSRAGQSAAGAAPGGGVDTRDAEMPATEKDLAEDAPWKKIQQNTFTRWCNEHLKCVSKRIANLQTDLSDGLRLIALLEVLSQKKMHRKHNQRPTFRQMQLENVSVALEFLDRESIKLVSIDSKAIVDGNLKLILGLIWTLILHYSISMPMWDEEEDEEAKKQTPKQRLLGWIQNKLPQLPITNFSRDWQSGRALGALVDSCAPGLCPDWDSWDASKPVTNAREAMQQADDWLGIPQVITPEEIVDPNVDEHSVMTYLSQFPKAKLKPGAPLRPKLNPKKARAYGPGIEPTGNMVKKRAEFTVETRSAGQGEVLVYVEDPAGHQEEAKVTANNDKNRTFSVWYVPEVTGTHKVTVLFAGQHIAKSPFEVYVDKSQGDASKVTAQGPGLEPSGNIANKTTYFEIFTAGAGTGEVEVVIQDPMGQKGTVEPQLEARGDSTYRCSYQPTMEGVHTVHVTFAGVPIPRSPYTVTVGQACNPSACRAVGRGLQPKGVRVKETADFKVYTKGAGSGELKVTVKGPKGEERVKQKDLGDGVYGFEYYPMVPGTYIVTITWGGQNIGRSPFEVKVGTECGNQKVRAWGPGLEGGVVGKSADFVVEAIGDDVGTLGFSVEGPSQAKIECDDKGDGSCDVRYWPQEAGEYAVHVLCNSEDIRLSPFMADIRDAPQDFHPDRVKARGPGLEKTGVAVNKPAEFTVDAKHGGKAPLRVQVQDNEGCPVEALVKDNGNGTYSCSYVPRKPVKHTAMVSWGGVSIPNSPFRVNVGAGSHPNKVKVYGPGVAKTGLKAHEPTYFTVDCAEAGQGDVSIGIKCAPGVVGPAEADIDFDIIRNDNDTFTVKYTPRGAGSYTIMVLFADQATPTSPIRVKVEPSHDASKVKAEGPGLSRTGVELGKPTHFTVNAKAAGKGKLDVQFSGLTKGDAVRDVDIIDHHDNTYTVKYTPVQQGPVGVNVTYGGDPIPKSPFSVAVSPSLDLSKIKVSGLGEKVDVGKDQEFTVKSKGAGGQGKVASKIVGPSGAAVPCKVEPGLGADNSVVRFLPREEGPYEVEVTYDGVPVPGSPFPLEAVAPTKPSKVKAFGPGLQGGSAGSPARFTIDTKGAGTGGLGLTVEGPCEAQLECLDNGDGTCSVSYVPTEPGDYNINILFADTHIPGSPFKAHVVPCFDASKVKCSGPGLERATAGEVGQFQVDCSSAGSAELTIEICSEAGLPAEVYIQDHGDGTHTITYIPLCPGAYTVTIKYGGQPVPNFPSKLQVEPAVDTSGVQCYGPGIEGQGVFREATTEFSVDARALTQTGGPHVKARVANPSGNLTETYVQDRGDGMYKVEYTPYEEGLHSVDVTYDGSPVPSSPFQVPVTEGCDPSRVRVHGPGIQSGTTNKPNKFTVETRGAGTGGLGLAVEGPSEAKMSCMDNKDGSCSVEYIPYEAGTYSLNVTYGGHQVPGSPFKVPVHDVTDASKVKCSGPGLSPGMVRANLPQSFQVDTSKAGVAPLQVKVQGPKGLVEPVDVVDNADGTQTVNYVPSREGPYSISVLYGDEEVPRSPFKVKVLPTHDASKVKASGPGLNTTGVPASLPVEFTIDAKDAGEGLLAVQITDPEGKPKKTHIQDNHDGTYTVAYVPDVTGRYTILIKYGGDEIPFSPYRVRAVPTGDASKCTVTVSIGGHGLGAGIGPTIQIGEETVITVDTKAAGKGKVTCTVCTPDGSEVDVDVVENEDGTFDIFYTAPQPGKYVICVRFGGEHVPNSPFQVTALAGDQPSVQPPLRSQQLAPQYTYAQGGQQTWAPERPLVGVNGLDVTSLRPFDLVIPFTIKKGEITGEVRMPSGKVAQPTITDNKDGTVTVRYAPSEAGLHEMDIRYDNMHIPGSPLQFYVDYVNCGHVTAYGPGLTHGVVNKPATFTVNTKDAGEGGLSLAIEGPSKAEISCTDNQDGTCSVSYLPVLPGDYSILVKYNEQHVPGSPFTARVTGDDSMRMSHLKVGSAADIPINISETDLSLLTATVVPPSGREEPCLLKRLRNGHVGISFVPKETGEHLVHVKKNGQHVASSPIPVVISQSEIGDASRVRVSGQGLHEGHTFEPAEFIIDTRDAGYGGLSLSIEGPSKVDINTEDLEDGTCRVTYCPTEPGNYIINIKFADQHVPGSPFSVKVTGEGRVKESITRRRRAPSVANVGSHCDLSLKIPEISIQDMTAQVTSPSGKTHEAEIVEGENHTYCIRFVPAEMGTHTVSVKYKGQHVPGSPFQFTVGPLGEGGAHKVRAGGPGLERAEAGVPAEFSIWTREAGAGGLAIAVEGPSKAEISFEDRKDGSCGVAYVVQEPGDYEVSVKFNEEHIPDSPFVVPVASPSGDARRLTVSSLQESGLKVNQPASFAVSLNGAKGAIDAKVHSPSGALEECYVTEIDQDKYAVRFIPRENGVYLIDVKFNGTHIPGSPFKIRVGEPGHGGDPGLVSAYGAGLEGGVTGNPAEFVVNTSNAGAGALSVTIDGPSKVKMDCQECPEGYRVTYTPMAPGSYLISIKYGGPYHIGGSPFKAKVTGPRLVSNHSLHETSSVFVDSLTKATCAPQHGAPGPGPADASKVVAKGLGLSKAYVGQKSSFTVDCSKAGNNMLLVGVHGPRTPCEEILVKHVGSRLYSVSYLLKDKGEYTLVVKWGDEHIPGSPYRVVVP
The data set is described as follows: photo-crosslinking of biotin-PRO1-azide in hMSCs, competition with PRO1, proteomics. The format is binding. On the procedure: To identify the interaction of PRO1 and FLNA, 5 μM biotin-PRO1-azide was added to hMSCs in the differentiation media in the absence or presence of a 50-fold molar excess of PRO1 and incubated for 30 min. 254-nm light was applied to the cells for another 30 min. Cells were lysed in lysis buffer (20 mM Tris-HCl, pH=7.4, 150 mM NaCl, 1 mM EDTA, 1 mM DTT, 0.5% v/v Triton X-100, protease inhibitor cocktail), passed through 26 1/2 gauge needles 20 times, and centrifuged at 12,000 rpm for 30 min. The supernatant was subjected to ammonium sulfate precipitation fractionation. Fractions were analyzed by Western blotting using an anti-biotin antibody (FIG. 6A). Fractions containing 20-40% ammonium sulfate were precipitated using trichloroacetic acid (TCA) and resuspended in isoelectric focusing sample buffer and subjected to 2D SDS-PAGE and Western blotting against biotin. Proteins specifically labeled by biotin-PRO1-azide were recognized, and the corresponding spots on a parallel gel visualized by silver staining were excised. These proteins were identified by mass spectrometry proteomics analysis. hMSCs were treated in monolayer or pellet culture (as indicated in FIG. 6B-6C) for 24-72 hrs. 15 μg of protein was separated by SDS-PAGE and hMSCs were fractionated (as indicated in FIG. 6B-6C) into cytosolic and nuclear fractions or monomeric and filamentous components as previously described.

For a further data set, the system named is human chondrocytes. The data set is described as follows: proliferation of human chondrocytes. The format is cell-based.
In another data set the test system is HEK 293 cells. Kind of data set: toxicity in HEK 293 cells. The class given is cell-based. The following applies: 100 μM.

Take `O=C(O)c1ccccc1C(=O)Nc1ccc(-c2ccccc2)cc1` [AKT]: the “type II collagen and aggrecan expression” value in the data set with hMSC is “increase type II collagen and aggrecan expression”. Moreover, the toxicity entry with synovial fibroblasts and with HEK 293 cells was “No toxicity” in each case. The cartilage damage result is reported as “Protection” in the data set on female 129SVE mice (day 28) and “Reduced Cartilage Damage” in the data set with C57BL/10 mice (day 56). In addition, in the data set with female 129SVE mice (day 28, ELISA), the “CTX-II peptide in plasma” value was “Inhibition”. Also, the “circulating COMP levels” value in the data set with C57BL/10 mice (ELISA) is given as “Reduced”. In data set [1], the “Plasma Conc.” value is on record as “BLQ”. For the same compound, at FLNA, the “interaction with FLNA” value is given as “Interacts with FLNA”. The same compound displayed a proliferative advantage in the data set on human chondrocytes of less than 1.5 fold.
